Results as given in patent US6348214B1, “Materials and methods for making improved liposome compositions” (The Board of Trustees of the Illinois, priority 1996, dated 2002).
Ends that are not written are not given here.

Tests used:
[1] = system: second-order arterioles in the cheek pouch of hamsters with spontaneous hypertension; experiment: Arteriolar diameter in hamster cheek pouch microcirculation, hamsters with spontaneous hypertension; type: in vivo
Method: (§1) Adult male hamsters with spontaneous hypertension (n=21) and age- and genetically-matched normotensive controls (n=20) were purchased from the Canadian Hybrid Farns, Halls Harbor, NS, Canada. In preparation, the animals were anesthetized interperitoneally with sodium pentobarbital (6 mg/100 g body weight) and a tracheostomy was performed to facilitate spontaneous breathing. The left femoral vein was cannulated to inject supplemental anesthesia (2 to 4 mg per 100 g body weight per hour) during the experiment. A catheter was inserted into the left femoral artery to record systemic arterial pressure and heart rate. Body temperature was monitored to maintain a constant 37-38° C. throughout the experiment using a heating pad.
(§2) In order to visualize microcirculation of the cheek pouch, previously described methods were employed [Gao, et al., Life Sci. 64: PL274-PL252 (1994); Mayhan and Joyner, Microvasc. Res. 28: 159-179 (1984); Mayban and Rubinstein, Biochem. Biophys. Res. Commun. 184:1372-1377 (1992); Raud, Acta Physiol. Scand. Suppl. 578:1-58 (1989); Rubinstein and Mayban, J. Lab. Clin. Med. 25:313-318 (1995); Rubinstein, et al., Am. J. Physiol. 261 (Heart Circ. Physiol. 30):111913-111918 (1991); and Suzuki, et al., Life Sci. 57:1451-1457 (1995)]. Briefly, the left cheek pouch was spread over a small plastic baseplate, and an incision was made in the outer skin to expose, the cheek pouch membrane. […]
(§3) Change in arteriolar diameter was determined as follows. […] The inner wall diameter of secondorder arterioles in the cheek pouch was measured from the video display of the microscope image using a videomicrometer (VIA-100, Boeckeler Instruments, Tucson, Ariz.). […]
VIP alone or encapsulated in liposomes was suffused for 7 minutes at a concentration of VIP of either 0.05 or 0.1 nmol peptide, and more than 30 minutes elapsed between subsequent applications of the peptide. Changes in arteriolar diameter before, during, and after topical application of VIP were determined as outlined above. […]

[2] = system: second-order arterioles in the cheek pouch of normotensive hamsters; conditions: 0.1 nmol VIP dissolved in saline; Suzuki et al. 1995; cited from earlier work
[3] = system: hamsters with spontaneous hypertension; experiment: Mean arterial pressure after intravenous administration, hamsters with spontaneous hypertension; type: in vivo, hamster
From the text: The provisional application further disclosed that a bolus intravenous injection of 1.0 nmol VIP-PEG-liposome compound acted to decrease mean arterial pressure (MAP) in hamsters with spontaneous hypertension. The results are reproduced herein as FIGS. 2A and 2B; FIG. 2A showing the actual decrease on arterial pressure and FIG. 2B showing the percent change. Data are mean values ± one standard error of the mean; an asterisk indicates statistically significant values compared to control with p value less than 0.05.
In examining the duration and efficacy of VIP in the two liposome preparations on mean arterial pressure, the following procedure was carried out. Adult mate hamsters with spontaneous hypertension (n=12) were obtained from the Canadian Hybrid Farms (Hall Harbour, Nova Scotia, Canada). Approximately 500 μl each of three test preparations, liposomes prepared by the second method above, VIP in aqueous solution, and liposomes without VIP, were injected administered over the course of 1 minute in the femoral vein. Continuous anesthesia of the animals limited the duration of the experiment to 6 hours.
Adult male golden Syrian hypertensive hamsters were prepared for intravital microscopy, cheek pouch microcirculation observed and measured, and mean arterial pressure determined, each technique as described above. […]

[4] = system: second-order arterioles in the cheek pouch of normotensive hamsters; experiment: Arteriolar diameter in hamster cheek pouch microcirculation, normotensive hamsters; type: in vivo; conditions: Example 1; 0.05 or 0.1 nmol VIP suffused for 7 minutes
Method: According to another experiment, normotensive hamsters were suffused onto the cheek pouch for 7 minutes with 0.1 nmol VIP-PEG-liposome composition which produced a significant increase in mean arterial diameter in situ. The results of this experiment are shown in FIG. 3 with data and significance indicated for results in FIGS. 2A and 2B above. […] Arterial diameter returned to baseline 9 minutes after suffusion was discontinued.
as §1, §2, §3

neutrophil = experiment: Neutrophil chemotaxis in two chamber apparatus (response to fmlp); type: cell-based; conditions: FIG. 5
From the text: Finally, as another experiment the effect of VIP-PEG-liposomes on neutrophil chemotaxis was examined using a two chamber apparatus routinely employed for in vitro analysis of chemotaxis. Neutrophil migration from the upper chamber into the lower chamber in response to formyl-methionyl-leucyl-phenylalanyl (fmlp) peptide in the lower chamber was initially established at a baseline control.

Row | Compound | vasorelaxation, hypertensive versus normotensive hamsters ([1]; Example 1, endothelium independent vasodilator control in the cheek pouch) | effect on arteriolar diameter ([1]; Example 1, 0.05 or 0.1 nmol VIP suffused for 7 minutes) | effect on arteriolar diameter ([1]; Example 5, hypertensive hamsters, suffusion for 7 minutes) | increase in arteriolar diameter [2] | effect on mean arterial pressure ([3]; Example 3, injected in the femoral vein over 1 minute) | effect on mean arterial pressure ([3]; Example 5, hypertensive hamsters) | effect on arteriolar diameter [4] | time after suffusion was stopped until return to baseline / persistence of vasodilation [4] [min] | time to maximal response from start of suffusion [4] [min] | neutrophil migration against fmlp in the lower chamber (neutrophil; test substance added with neutrophils in the upper chamber) | neutrophil migration against test substance in the lower chamber (neutrophil; test substance in lower chamber, no fmlp)
1 | O=[N+]([O-])OCC(CO[N+](=O)[O-])O[N+](=O)[O-] [nitroglycerin] | vasorelaxation of similar magnitude in both groups | – | – | – | – | – | – | – | – | – | –
2 | vasoactive intestinal peptide (HSDAVFTDNYTRLRKQMAVKKYLNSILN; ends and bridges not checked; UniProt P01282 125-152, looked up) [VIP] | – | no significant effects on arteriolar diameter | no effects | approximately 10% | No significant effect on mean arterial pressure | no effect | significant vasodilation | ≤ 1 | ≤ 4 | significant migration was observed | negligible
